Source: ChEMBL document CHEMBL4311964, “Potent combretastatin A-4 analogs containing 1,2,4-triazole: Synthesis, antiproliferative, anti-tubulin activity, and docking study” (Eur J Med Chem, 2019)
pIC50: −log10 of the molar value.

Columns and labels:
[1] = tested on: HL-60; experiment: Antiproliferative activity against human HL60 cells assessed as cell growth inhibition measured after 48 hrs by MTT assay; type: functional, cell-based; details: HL-60, 48 h
[2] = tested on: MCF7; experiment: Antiproliferative activity against human MCF7 cells assessed as cell growth inhibition measured after 48 hrs by MTT assay; type: functional, cell-based; details: MCF7, 48 h
[3] = tested on: HepG2; experiment: Antiproliferative activity against human HepG2 cells assessed as cell growth inhibition measured after 48 hrs by MTT assay; type: functional, cell-based; details: HepG2, 48 h
[4] = tested on: HepG2; experiment: Cell cycle arrest in human HepG2 cells assessed as accumulation at pre-G1 phase at IC50 concentration by DNase/propidium iodide staining based flow cytometry analysis (reference value: 1.59 %); type: functional
[5] = tested on: HepG2; experiment: Cell cycle arrest in human HepG2 cells assessed as accumulation at G2/M phase at IC50 concentration by DNase/propidium iodide staining based flow cytometry analysis (reference value: 10.06 %); type: functional
[6] = tested on: HepG2; experiment: Cell cycle arrest in human HepG2 cells assessed as accumulation at S phase at IC50 concentration by DNase/propidium iodide staining based flow cytometry analysis (reference value: 32.51 %); type: functional
[7] = tested on: HepG2; experiment: Induction of apoptosis in human HepG2 cells assessed as early apoptotic cells at IC50 concentration by annexinV-FITC/propidium iodide staining based flow cytometry (reference value: 0.69 %); type: functional
[8] = target: Tubulin (Bos taurus, UniProt Q6B856+Q862L2+Q862F3); experiment: Inhibition of [3H] colchicine binding to bovine brain tubulin incubated for 30 mins by scintillation proximity assay
[9] = tested on: HepG2; experiment: Induction of apoptosis in human HepG2 cells assessed as necrotic cells at IC50 concentration by annexinV-FITC/propidium iodide staining based flow cytometry (reference value: […]); type: functional
[10] = tested on: HepG2; experiment: Induction of apoptosis in human HepG2 cells assessed as activation of caspase 3 measured after 0.5 to 1 hrs by fluorescence assay relative to control; type: functional
[11] = target: Tubulin beta (Homo sapiens) (UniProt P68371+Q9H4B7+Q13509+P04350+Q3ZCM7+P07437+Q13885+Q9BVA1+Q9BUF5+A6NNZ2); experiment: Inhibition of tubulin beta polymerization in human HepG2 cells at IC50 using TMB substrate preincubated for 2 hrs followed by substrate addition measured after 15 to 20 mins in presence of GTP by ELISA relative to control; type: cell-based
[12] = tested on: HepG2; experiment: Cell cycle arrest in human HepG2 cells assessed as accumulation at G0/G1 phase at IC50 concentration by DNase/propidium iodide staining based flow cytometry analysis (reference value: 57.43 %); type: functional
[13] = target: Tubulin (Sus scrofa, UniProt P02554+P02550); experiment: Inhibition of porcine brain tubulin polymerization assessed as decrease in fluorescence intensity measured every 60 sec for 90 mins in presence of GTP by DAPI staining based fluorescence assay
[14] = tested on: HepG2; experiment: Induction of apoptosis in human HepG2 cells assessed as late apoptotic cells at IC50 concentration by annexinV-FITC/propidium iodide staining based flow cytometry (reference value: 0.38 %); type: functional
[15] = tested on: HepG2; experiment: Induction of apoptosis in human HepG2 cells assessed as viable cells at IC50 concentration by annexinV-FITC/propidium iodide staining based flow cytometry (reference value: 98.41 %); type: functional

SMILES	pIC50 [1]	pIC50 [2]	pIC50 [3]	other results
COc1cc(-c2nc(C(=O)Nc3ccccc3)nn2-c2ccc(F)c(Cl)c2)cc(OC)c1OC	6.00	6.77	5.65	
COc1ccccc1NC(=O)c1nc(-c2cc(OC)c(OC)c(OC)c2)n(-c2ccc(F)c(Cl)c2)n1	8.40	5.82	6.46	Activity [4]: 19.22%; Activity [5]: 40.56%; Activity [6]: 24.67%; Activity [7]: 5.24%; IC50 [8]: 3580 nM; Kd [8]: 540 nM; Ki [8]: 260 nM; Activity [9]: 2.66%; fold change (FC) [10]: 7; inhibition [11]: 62%; Activity [12]: 34.77%; IC50 [13]: 1030 nM; Activity [14]: 11.32%; Activity [15]: 80.78%
COc1ccc(NC(=O)c2nc(-c3cc(OC)c(OC)c(OC)c3)n(-c3ccc(F)c(Cl)c3)n2)cc1Cl	6.15	6.00	5.67	
COc1cc(-c2nc(C(=O)Nc3ccc(F)c(F)c3F)nn2-c2ccc(F)c(Cl)c2)cc(OC)c1OC	5.88	6.85	6.39	
COc1cc(-c2nc(C(=O)Nc3ccc(C(=O)O)cc3)nn2-c2ccc(F)c(Cl)c2)cc(OC)c1OC	5.93	7.30	5.80	
COc1ccc(NC(=O)c2nc(-c3cc(OC)c(OC)c(OC)c3)n(-c3ccc(F)c(Cl)c3)n2)cc1	5.65	6.19	6.12	
COc1cc(-c2nc(C(=O)Nc3ccc(F)cc3)nn2-c2ccc(F)c(Cl)c2)cc(OC)c1OC	6.52	6.74	6.28	
COc1cccc(NC(=O)c2nc(-c3cc(OC)c(OC)c(OC)c3)n(-c3ccc(F)c(Cl)c3)n2)c1	6.10	6.36	6.25	
COc1ccc(-n2nc(C(=O)Nc3ccc(F)c(Cl)c3)nc2-c2cc(OC)c(OC)c(OC)c2)cc1Cl	6.64	7.52	6.17	IC50 [8]: 2110 nM; Kd [8]: 320 nM; Ki [8]: 150 nM; inhibition [11]: 73%; IC50 [13]: 700 nM
COc1cc(-c2nc(C(=O)Nc3cccc(F)c3)nn2-c2ccc(F)c(Cl)c2)cc(OC)c1OC	6.21	6.96	6.00	
COc1cc(-c2nc(C(=O)Nc3ccc(OC(F)(F)F)cc3)nn2-c2ccc(F)c(Cl)c2)cc(OC)c1OC	6.80	6.51	7.00	
CCOc1ccc(NC(=O)c2nc(-c3cc(OC)c(OC)c(OC)c3)n(-c3ccc(F)c(Cl)c3)n2)cc1	6.22	6.28	5.83	
COc1cc(-c2nc(C(=O)Nc3cc(F)cc(F)c3)nn2-c2ccc(F)c(Cl)c2)cc(OC)c1OC	5.43	5.31	6.15	
COc1ccc(-n2nc(C(=O)Nc3ccc(F)c(F)c3F)nc2-c2cc(OC)c(OC)c(OC)c2)cc1Cl	5.58	5.68	7.40	Activity [4]: 31.04%; Activity [5]: 55.08%; Activity [6]: 18.61%; Activity [7]: 6.06%; Activity [9]: 2.78%; fold change (FC) [10]: 9; inhibition [11]: 82%; Activity [12]: 26.31%; IC50 [13]: 760 nM; Activity [14]: 22.2%; Activity [15]: 68.96%
COc1ccc(-n2nc(C(=O)Nc3ccc(OC(F)(F)F)cc3)nc2-c2cc(OC)c(OC)c(OC)c2)cc1Cl	6.09	7.41	5.15	
COc1cc(-c2nc(C(=O)Nc3ccc(F)c(Cl)c3)nn2-c2ccc(F)c(Cl)c2)cc(OC)c1OC	5.26	6.92	6.05	
COc1ccc(NC(=O)c2nc(-c3cc(OC)c(OC)c(OC)c3)n(-c3ccc(F)c(Cl)c3)n2)c(C)c1	6.44	5.81	6.24	
COc1ccc(C)cc1NC(=O)c1nc(-c2cc(OC)c(OC)c(OC)c2)n(-c2ccc(F)c(Cl)c2)n1	5.74	6.89	5.55	
COc1cc(-c2nc(C(=O)Nc3ccccc3F)nn2-c2ccc(F)c(Cl)c2)cc(OC)c1OC	8.00	6.72	4.90	
